According to patent publication US5948793A, “3-pyridyloxymethyl heterocyclic ether compounds useful in controlling neurotransmitter release” (Abbott Laboratories, priority 1995, dated 1999):
Where a name gives a salt, the structure may show the parent alone.

These compounds were tested against neuronal nicotinic cholinergic channel receptors (assay: [3H]-cytisine displacement binding to neuronal nicotinic cholinergic channel receptors). Settings: Table 2; [3H]-cytisine 1.25 nM, 60 min at 4° C.; read-out: Receptor Binding Ki.
Format: rat (crude synaptic membranes from whole rat brain)
Procedure: B. Protocol For Determination of Nicotinic Cholinergic Channel Receptor Binding Potencies of Ligands
Binding of [^3 H]-cytisine ([^3 H]-CYT) to nicotinic receptors was accomplished using crude synaptic membrane preparations from whole rat brain (Pabreza et al., Molecular Pharmaol., 1990, 39:9). Washed membranes were stored at -80° C. prior to use. Frozen aliquots were slowly thawed and resuspended in 20 volumes of buffer (containing: 120 mM NaCl, 5 mM KCl, 2 mM MgCl2, 2 mM CaCl2 and 50 mM Tris-Cl, pH 7.4 @4° C.). After centrifuging at 20,000×g for 15 minutes, the pellets were resuspended in 30 volumes of buffer. Homogenate (containing […]) was added to triplicate tubes containing concentrations of test compound and [^3 H]-CYT (1.25 nM) in a final volume of 500 μL. Samples were incubated for 60 minutes at 4° C., then rapidly filtered through Whatman GF/B filters presoaked in 0.5% polyethylimine using 3×4 mL of ice-cold buffer. The filters are counted in 4 mL of Ecolume® (ICN). […] Alternately, data were expressed as a percentage of the total specific binding.

| Compound | Ki |
| --- | --- |
| CCC[C@H]1CCN(C)[C@H]1COc1cccnc1 (relative stereo) [Example 60, 3-((cis-1-methyl-3-propyl-2-pyrrolidinyl)methoxy)pyridine dihydrochloride] | 51 nM |
| CN1CCC[C@@H]1COc1cncc(C(F)(F)F)c1 [Example 54, 3-((1-methyl-2-(R)-pyrrolidinyl)methoxy)-5-trifluoromethylpyridine hydrochloride] | 78 nM |
| CN1CCCC[C@@H]1COc1cccnc1 [Example 42, 3-((1-methyl-2-(R)-piperidinyl)methoxy)pyridine dihydrochloride] | 342 nM |
| Clc1ccc(OC[C@@H]2CCCN2)cn1 [Example 45, 3-(2-(S)-pyrrolidinylmethoxy)-6-chloropyridine dihydrochloride] | 0.075 nM |
| CN1CCC[C@H]1COc1cncc(N)c1 [Example 94, 5-Amino-3-(1-methyl-2(S)-pyrrolidinylmethoxy)pyridine hydrochloride] | 0.5 nM |
| CCCCc1cncc(OC[C@@H]2CCCN2C)c1 [Example 71, 5-n-butyl-3-((1-methyl-2-(S)-pyrrolidinyl)methoxy)pyridine dihydrochloride] | 0.1 nM |
| CO[C@@H]1C[C@@H](COc2cccnc2)N(C)C1 [Example 47, 34 (trans-4-methoxy-1-methyl-2-(S)-pyrrolidinyl)methoxy)pyridine dihydrochloride] | 23 nM |
| Brc1cncc(OC[C@@H]2CCN2)c1 [Example 67, 3-(2-(S)-azetidinylmethoxy)-5-bromopyridine dihydrochloride] | 0.2 nM |
| C=CCN1CCC[C@H]1COc1cncc(Br)c1 [Example 57, 3-((1-allyl-2-(S)-pyrrolidinyl)methoxy)-5-bromopyridine dihydrochloride] | 17 nM |
| CN1CCC[C@H]1COc1ccc(CO)nc1 [Example 88, 6-hydroxymethyl-3-((1-methyl-2-(S)-pyrrolidinyl)methoxy)pyridine dihydrochloride] | 10.4 nM |
| Clc1cc(OC[C@@H]2CCN2)cnc1Cl [Example 109, 5,6-Dichloro-3-(2-(S)-azetidinylmethoxy)pyridine hydrochloride] | 0.024 nM |
| Cc1cncc(OC[C@@H]2CCCN2C)c1 [Example 73, 5-methyl-3-(1-methyl-2-(S)-pyrrolidinylmethoxy)pyridine dihydrochloride] | 0.48 nM |
| CCCc1cncc(OC[C@@H]2CCCN2C)c1 [Example 77, 5-n-propyl-3-((1-methyl-2-(S)-pyrrolidinyl)methoxy)pyridine dihydrochloride] | 0.1 nM |
| FC(F)(F)c1cncc(OC[C@H]2CCCN2)c1 [Example 69, 3-(2-(R)-pyrrolidinylmethoxy)-5-trifluoromethylpyridine dihydrochloride] | 2.1 nM |
| c1ccc2ncc(OC[C@H]3CCCN3)cc2c1 [Example 76, 3-(2-(R)-pyrrolidinylmethoxy)quinoline dihydrochloride] | 12.8 nM |
| FC(F)(F)c1cncc(OC[C@@H]2CCN2)c1 [Example 70, 3-(2-(S)-azetidinylmethoxy)-5-trifluoromethylpyridine dihydrochloride] | 0.6 nM |
| CN1CCC[C@@H]1COc1ccc(Cl)nc1 [Example 51, 3-((1-methyl-2-(R)-pyrrolidinyl)methoxy-6-chloropyridinedihydrochloride] | 4.5 nM |
| CN1C[C@@H](CO)C[C@H]1COc1cccnc1 [Example 48, 3-((cis-4-hydroxymethyl-1-methyl-2-(S)-pyrrolidinyl)methoxy)pyridine dihydrochloride] | 30 nM |
| CN1CCC[C@@H]1COc1cncc(Br)c1 [Example 56, 5-bromo-3-((1-methyl-2-(R)-pyrrolidinyl)methoxy)pyridine hydrochloride] | 9.2 nM |
| Clc1ncccc1OC[C@@H]1CCCN1 [Example 43, 2-chloro-3-(2-(S)-pyrrolidinylmethoxy)pyridine dihydrochloride] | 18.6 nM |
| Cc1ncccc1OC[C@@H]1CCN1C [Example 30, 2-Methyl-3-((1-methyl-2-(S)-azetidinyl)methoxy)pyridine dihydrochloride] | 129 nM |

| Compound | Ki |
| --- | --- |
| CCc1cncc(OC[C@@H]2CCCN2C)c1 [Example 75, 5-ethyl-3-(1-methyl-2-(S)-pyrrolidinylmethoxy)pyridine dihydrochloride] | 0.32 nM |
| CN1C[C@H](CO)C[C@H]1COc1cccnc1 [Example 83, 3-((trans-4-hydroxymethyl-1-methyl-2-(S)-pyrrolidinyl)methoxy)pyridine dihydrochloride] | 73.1 nM |
| CN1C[C@H](CC#N)C[C@H]1COc1cccnc1 [Example 50, 3-((trans-4-cyanomethyl-1-methyl-2-(S)-pyrrolidinyl)methoxy)pyridine dihydrochloride] | 5.6 nM |
| CN1C[C@H](OS(C)(=O)=O)C[C@H]1COc1cccnc1 [Example 87, 3-((trans-4-methanesulfonyloxy-1-methyl-2(S)-pyrrolidinyl)methoxy)pyridine dihydrochloride] | 0.11 nM |
| CN1CC[C@H]1COc1cncc(Cl)c1 [Example 80, 5-chloro-3-((1-methyl-2-(S)-azetidinyl)methoxy)pyridine dihydrochloride] | 1.9 nM |
| CN1CCC[C@H]1CCOc1cccnc1 [Example 103, 3-(2-(1-methyl-2-(S)-pyrrolidinyl)ethoxy)pyridine dihydrochloride] | 18.4 nM |
| CN1CCC[C@H]1COc1cncc([N+](=O)[O-])c1 [Example 108, 5-Nitro-3-(1-methyl-2(S)-pyrrolidinylmethoxy)pyridine hydrochloride] | 4.9 nM |
| CN1CC[C@H]1COc1cnc(Cl)c(Cl)c1 [Example 110, 5,6-Dichloro-3-(1-methyl-2-(S)-azetidinylmethoxy)pyridine hydrochloride] | 0.75 nM |
| c1cnc(OC[C@@H]2CCN2)cn1 [Example 7, 2-(2-(S)-azetidinylmethoxy)pyrazine dihydrochloride] | 0.44 nM |
| CCC[C@H]1CCN[C@H]1COc1cccnc1 (relative stereo) [Example 61, 3-((cis-3-propyl-2-pyrrolidinyl)methoxy)pyridine dihydrochloride] | 1.3 nM |
| CN1CCC[C@H]1COc1cnccn1 [Example 3, 2-((1-methyl-2-(S)-pyrrolidinyl)methoxy)pyrazine fumarate] | 20 nM |
| CN1CCC[C@H]1COc1cncc(C(F)(F)F)c1 [Example 44, 3-(1-methyl-2-(S)-pyrrolidinylmethoxy)-5-trifluoromethylpyridine dihydrochloride] | 1.8 nM |
| CN1CCC[C@H]1COc1cncnc1 [Example 84, 5-(1-methyl-2-(S)-pyrrolidinylmethoxy)pyrimidine dihydrochloride] | 2.41 nM |
| CN1C[C@@H](CF)C[C@H]1COc1cccnc1 [Example 92, 3-((cis-4-fluoromethyl-1-methyl-2-(S)-pyrrolidinyl)methoxy)pyridine dihydrochloride] | 141 nM |
| Cc1ncccc1OC[C@@H]1CCCN1C [Example 53, 2-methyl-3-(1-methyl-2-(S)-pyrrolidinylmethoxy)pyridine dihydrochloride] | 28 nM |
| Cc1ccc(OC[C@@H]2CCN2)cn1 [Example 40, 6-methyl-3-(2(S)-azetidinylmethoxy)pyridine dihydrochloride] | 0.05 nM |
| CN1C[C@@H](F)C[C@H]1COc1cccnc1 [Example 78, 3-((cis-4-fluoro-1-methyl-2-(S)-pyrrolidinyl)methoxy)pyridine dihydrochloride] | 5.77 nM |
| c1cncc(OC[C@H]2CCN2)c1 [Example 62, 3-(2-(R)-azetidinylmethoxy)pyridine dihydrochloride] | 0.5 nM |
| Clc1cncc(OC[C@@H]2CCCN2)c1 [Example 15, 5-chloro-3-(2-(S)-pyrrolidinylmethoxy)pyridine dihydrochloride] | 0.13 nM |
| c1cncc(OCC[C@@H]2CCCN2)c1 [Example 102, 3-(2-(2-(S)-pyrrolidinyl)ethoxy)pyridine dihydrochloride] | 34.9 nM |

Same assay, conditions: read-out: Receptor Binding Ki

| Compound | Ki |
| --- | --- |
| CN1CCC[C@@H]1COc1ccc(Cl)nn1 [Example 5, oxalate] | 87 nM |
| CN1CCCCC1COc1cccnc1 (stereo not shown) [Example 26, 3-((1-methyl-2-piperidinyl)methoxy)pyridine oxalate salt] | 76 nM |
| Cc1ccncc1OC[C@@H]1CCCN1 [Example 27, 4-methyl-3-(2-(S)-pyrrolidinylmethoxy)pyridine dihydrochloride] | 5.8 nM |
| Cc1ncccc1OC[C@@H]1CCN1 [Example 29, 2-methyl-3-(2-(S)-azetidinylmethoxy)pyridine dihydrochloride] | 1.3 nM |
| C[C@H]1CC[C@@H](COc2cccnc2)N1C [Example 22, 3-((cis-1,5-dimethyl-2-(S)-pyrrolidinyl)methoxy)pyridine dihydrochloride] | 25 nM |
| C[C@@H]1C[C@@H](COc2cccnc2)N(C)C1 [Example 24, 3-((trans-1,4-dimethyl-2(S)-pyrrolidinyl)methoxy)pyridine dihydrochloride] | 4.2 nM |
| CN1CCC[C@@H]1COc1cncc(Cl)c1 [Example 34, 5-chloro-3-((1-methyl-2-(R)-pyrrolidinyl)methoxy)pyridine dihydrochloride] | 11 nM |
| CN1CCC[C@H]1COc1cnccc1Br [Example 21, 4-bromo-3-((1-methyl-2-(S)-pyrrolidinyl)methoxy)pyridine dihydrochloride] | 23 nM |
